From patent US20130035256A1, “Chimeric Polypeptides Useful in Proximal and Dynamic High-Throughput Screening Methods” (ADDEX PHARMA SA, priority 2010, published 2013)
Structures can show the parent of a compound that is named as a salt. Marks after values point to notes of the source that are not given here.

Key:
M4R = target: T1, M4R (Homo sapiens, UniProt P08173); experiment: Calcium-based assay, calcium flux in cells co-expressing recombinant M4R and modified Gαq; format: cell-based; conditions: for Calcium-based assay % stim: compound tested alone; for Calcium-based assay % enh: in presence of EC20 value of Ach; for Calcium-based assay % inh: in presence of EC80 of Ach
T1 construct: expressed in transfected cells
T1 sequence (P08173 1-479): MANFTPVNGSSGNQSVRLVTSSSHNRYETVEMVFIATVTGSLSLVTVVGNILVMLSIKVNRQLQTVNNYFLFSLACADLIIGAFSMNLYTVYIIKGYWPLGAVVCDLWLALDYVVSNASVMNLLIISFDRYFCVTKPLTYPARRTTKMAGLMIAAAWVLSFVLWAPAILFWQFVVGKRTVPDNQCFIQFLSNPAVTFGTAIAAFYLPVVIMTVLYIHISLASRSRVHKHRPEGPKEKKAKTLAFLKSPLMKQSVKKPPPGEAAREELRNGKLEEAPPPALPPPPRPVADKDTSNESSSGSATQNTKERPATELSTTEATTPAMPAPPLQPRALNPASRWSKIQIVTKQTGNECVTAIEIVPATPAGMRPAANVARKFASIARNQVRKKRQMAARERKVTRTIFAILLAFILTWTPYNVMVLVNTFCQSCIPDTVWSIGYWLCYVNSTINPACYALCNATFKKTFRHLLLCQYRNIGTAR
Method: (§1) The assay of the present invention was compared with a state of the art calcium based assay. […] In calcium-based assay, a calcium flux is measured in cells co-expressing recombinant M4R and modified Gαq. In the assay in accordance with the present invention, BRET in measured in cells co-expressing a chimeric M4R according to RGLG-2 (construct and cell-line from FIG. 2C, Table 6) and FP-Gγ9 (as described in FIG. 10A). The data represent mean values and they are normalized to the maximal effect of the orthosteric agonist after the subtraction of the basal values.

chimeric M4R (RGLG-2) = target: T2, chimeric M4R (RGLG-2) (Homo sapiens, UniProt P08173); experiment: BRET assay of the invention, cells co-expressing chimeric M4R (RGLG-2) and FP-Gγ9; format: cell-based; conditions: for Invention assay % stim: compound tested alone; for Invention assay % enh: in presence of EC20 value of Ach; for Invention assay % inh: in presence of EC80 of Ach; for activation of the chimeric M4R (BRET): increasing concentrations of ligand
T2 construct: ID; NOs; expressed in transfected cells
Method: The same cells as described for FIG. 10 A were used. […] The decrease of the signal below baseline in the PTX-treated condition confirms a constitutive activity that has been described for the M4R. […]
A typical experiment has the following sequence.
as §1

[1] = activity @ 30uM or 30 ug/ml, normalized to maximal effect of the orthosteric agonist

T2 sequence (P08173 with tags, fused parts or gaps): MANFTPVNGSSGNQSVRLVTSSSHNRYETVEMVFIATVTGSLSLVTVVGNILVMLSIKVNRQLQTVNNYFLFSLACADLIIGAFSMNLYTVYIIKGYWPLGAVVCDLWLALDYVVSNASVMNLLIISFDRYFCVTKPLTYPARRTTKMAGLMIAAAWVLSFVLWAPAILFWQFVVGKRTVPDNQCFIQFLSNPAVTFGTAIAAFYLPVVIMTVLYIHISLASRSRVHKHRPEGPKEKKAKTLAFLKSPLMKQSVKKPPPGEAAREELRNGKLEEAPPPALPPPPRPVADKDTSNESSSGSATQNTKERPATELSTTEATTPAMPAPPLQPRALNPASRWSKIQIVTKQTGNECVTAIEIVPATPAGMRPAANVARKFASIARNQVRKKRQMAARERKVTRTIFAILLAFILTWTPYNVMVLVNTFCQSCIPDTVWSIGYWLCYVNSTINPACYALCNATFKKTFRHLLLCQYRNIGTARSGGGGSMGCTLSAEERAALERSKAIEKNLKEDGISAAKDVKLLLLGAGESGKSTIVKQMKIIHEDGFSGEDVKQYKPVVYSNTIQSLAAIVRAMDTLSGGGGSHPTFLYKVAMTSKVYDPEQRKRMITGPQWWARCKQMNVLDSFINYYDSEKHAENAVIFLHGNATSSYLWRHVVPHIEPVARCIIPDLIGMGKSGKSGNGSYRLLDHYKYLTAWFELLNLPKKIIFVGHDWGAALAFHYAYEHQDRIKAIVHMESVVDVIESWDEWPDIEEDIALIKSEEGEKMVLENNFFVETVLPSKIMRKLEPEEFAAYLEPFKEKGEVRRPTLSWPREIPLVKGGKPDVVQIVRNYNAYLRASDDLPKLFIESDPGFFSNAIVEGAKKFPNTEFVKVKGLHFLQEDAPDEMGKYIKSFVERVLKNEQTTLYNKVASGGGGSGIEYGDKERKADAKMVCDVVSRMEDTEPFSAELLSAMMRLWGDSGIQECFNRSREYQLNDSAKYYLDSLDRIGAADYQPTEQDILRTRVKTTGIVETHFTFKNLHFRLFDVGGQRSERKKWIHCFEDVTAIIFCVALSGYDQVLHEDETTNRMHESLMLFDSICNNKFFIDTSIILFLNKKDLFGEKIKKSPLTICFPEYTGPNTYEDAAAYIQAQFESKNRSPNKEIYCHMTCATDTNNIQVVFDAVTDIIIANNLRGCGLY

Row | Compound | Calcium-based assay % stim (M4R; [1]) [%] | Calcium-based assay % enh (M4R; [1]) [%] | Calcium-based assay % inh (M4R; [1]) [%] | Invention assay % stim (chimeric M4R (RGLG-2); [1]) [%] | Invention assay % enh (chimeric M4R (RGLG-2); [1]) [%] | Invention assay % inh (chimeric M4R (RGLG-2); [1]) [%] | Calcium-based assay % stim (M4R; * @ 3uM or 3 ug/ml) | Invention assay % stim (chimeric M4R (RGLG-2); * @ 3uM or 3 ug/ml) | Invention assay % enh (chimeric M4R (RGLG-2); * @ 3uM or 3 ug/ml) | Invention assay % inh (chimeric M4R (RGLG-2); * @ 3uM or 3 ug/ml) | activation of the chimeric M4R (BRET) (chimeric M4R (RGLG-2)) | Calcium-based assay % enh (M4R; * @ 3uM or 3 ug/ml)
1 | Cc1ccc2c(c1)C(=O)C1(O)CCN(c3ccccc3)C1=N2 (racemic) [(±)-Blebbistatin] | 130.0 | 115.1 | −46.9 | −7.2 | −2.4 | 13.1 | – | – | – | – | – | –
2 | NCCOB(c1ccccc1)c1ccccc1 [2-APB] | 3.7 | 4.8 | 30.3 | −4.7 | 6.3 | 10.5 | – | – | – | – | – | –
3 | Nc1ncnc2c1ncn2[C@@H]1O[C@H](COP(=O)(O)OP(=O)(O)OP(=O)(O)O)[C@@H](O)[C@H]1O [ATP] | – | – | – | – | – | – | – | – | – | – | lack of activation | –
4 | C[C@H]1CCC/C=C/[C@@H]2C[C@H](O)C[C@H]2[C@H](O)/C=C/C(=O)O1 [Brefeldin A] | 5.2 | 32.3 | −19.5 | −2.5 | −1.9 | 12.7 | – | – | – | – | – | –
5 | CN(C)CCCn1cc(C2=C(c3c[nH]c4ccccc34)C(=O)NC2=O)c2ccccc21 [GF 109203X] | 154.3 | 84.3 | −10.0 | 2.2 | 7.4 | 29.5 | – | – | – | – | – | –
6 | O=C1OC2(c3ccccc31)c1ccc(O)c(O)c1Oc1c2ccc(O)c1O [Gallein] | 11.7 | 42.9 | −22.2 | 3.9 | 5.1 | 5.3 | – | – | – | – | – | –
7 | C[C@H](CCC(=O)O)C[C@H](C)C[C@H](C)C(=O)/C=C(\O)[C@H](C)C[C@H](C)C/C=C/[C@@H](C)[C@@H](O)[C@@H](C)[C@@H](O)C[C@@H]1CC[C@@](C)([C@H]2CC[C@@](C)([C@@H](C)O)O2)O1 [Ionomycin calcium salt] | 488.7 | – | 112.2 | −11.8 | −2.5 | 14.6 | – | – | – | – | – | 58.8* %
8 | COc1nc2sc(C(=O)NC3CC3)c(N)c2c(C)c1Cl [LY2033298] | – | – | – | – | – | – | – | – | – | – | activation | –
9 | CCOC(=O)C1=C(C)NC(=S)NC1c1cccc(O)c1 (stereo not shown) [Monastrol] | 4.1 | 44.7 | −16.7 | −3.0 | −0.1 | 7.0 | – | – | – | – | – | –
10 | CCN1C(=O)C=CC1=O [N-Ethylmaleimide] | 3.8 | 0.2 | 96.9 | −3.4 | 12.4 | 16.5 | – | – | – | – | – | –
11 | CC[C@H]1/C=C/C=C/C[C@@H](C)[C@H](O)[C@@](C)(O)C(=O)[C@@H](C)[C@H](O)[C@@H](C)C(=O)[C@@H](C)[C@H](O)[C@@H](C)/C=C/C(=O)O[C@@H]2[C@H](C)[C@H](CC1)O[C@]1(CC[C@H](C)[C@H](C[C@@H](C)O)O1)[C@H]2C [Oligomycin] | 3.3 | 63.8 | −21.6 | 1.8 | 3.3 | 8.5 | – | – | – | – | – | –
12 | Thapsigargin | 129.5 | 49.8 | 11.6 | −0.7 | −4.2 | 10.8 | – | – | – | – | – | –

Further lines, with some results ahead:

Row | Calcium-based assay % stim (M4R; [1]) [%] | Calcium-based assay % enh (M4R; [1]) [%] | Calcium-based assay % inh (M4R; [1]) [%] | Invention assay % stim (chimeric M4R (RGLG-2); [1]) [%] | Invention assay % enh (chimeric M4R (RGLG-2); [1]) [%] | Invention assay % inh (chimeric M4R (RGLG-2); [1]) [%] | Calcium-based assay % stim (M4R; * @ 3uM or 3 ug/ml) | Invention assay % stim (chimeric M4R (RGLG-2); * @ 3uM or 3 ug/ml) | Invention assay % enh (chimeric M4R (RGLG-2); * @ 3uM or 3 ug/ml) | Invention assay % inh (chimeric M4R (RGLG-2); * @ 3uM or 3 ug/ml) | Compound | activation of the chimeric M4R (BRET) (chimeric M4R (RGLG-2)) | Calcium-based assay % enh (M4R; * @ 3uM or 3 ug/ml)
13 | 1.4 | −7.3 | 118.9 | −14.9 | −3.5 | 29.9 | – | – | – | – | CCCCCC(O)/C=C/C=O (stereo not shown) [4-Hydroxynonenal] | – | –
14 | 26.8 | 77.8 | −66.5 | −8.2 | 4.7 | 11.4 | – | – | – | – | COC(=O)C1=C(C)NC(C)=C([N+](=O)[O-])[C@@H]1c1ccccc1C(F)(F)F [(R)-(+)-Bay K 8644] | – | –
15 | 16.1 | 59.8 | −65.0 | −8.0 | −3.6 | 14.6 | – | – | – | – | COC(=O)C1=C(C)NC(C)=C([N+](=O)[O-])[C@H]1c1ccccc1C(F)(F)F [(S)-(−)-Bay K 8644] | – | –
16 | 18.1 | 62.6 | −29.2 | 1.3 | 8.3 | 1.5 | – | – | – | – | Cn1c2c(c(=O)n(C)c1=O)C(c1cccc(Br)c1)C1=C(N2)c2ccccc2C1=O (stereo not shown) [BPIPP] | – | –
17 | 13.4 | 92.3 | −73.7 | −8.0 | 23.9 | −3.5 | – | – | – | – | O=C(N/N=C/c1ccc(O)c(O)c1)c1cc2ccccc2cc1O [Dynamin Inhibitor I] | – | –
18 | 48.9 | 59.7 | −66.6 | −8.4 | 7.5 | 10.0 | – | – | – | – | COC(=O)c1c(C)[nH]c(C)c1C(=O)c1ccccc1Cc1ccccc1 [FPL 64176] | – | –
19 | 57.8 | 58.3 | −22.4 | −5.0 | −3.6 | 11.8 | – | – | – | – | C=C[C@@]1(C)CC(=O)[C@]2(O)[C@@]3(C)[C@@H](O)CCC(C)(C)[C@@H]3[C@H](O)[C@H](OC(C)=O)[C@@]2(C)O1 [FSK] | – | –
20 | 879.7 | 151.4 | −23.8 | −6.8 | 2.8 | 13.5 | – | – | – | – | O=C1Nc2ccc(I)cc2/C1=C/c1cc(Br)c(O)c(Br)c1 [GW 5074] | – | –
21 | – | – | – | – | – | – | 8.1* % | −0.8* % | −1.2* % | 15.8* % | CN([C@@H](Cc1ccc(OS(=O)(=O)c2cccc3cnccc23)cc1)C(=O)N1CCN(c2ccccc2)CC1)S(=O)(=O)c1cccc2cnccc12 [KN-62] | – | 39.4* %
22 | −0.9 | 8.7 | 34.8 | −15.8 | 5.3 | 23.2 | – | – | – | – | COC(=O)C1=C(C)NC(C)=C(C(=O)OC)C1c1ccccc1[N+](=O)[O-] [Nifedipine] | – | –
23 | 5.1 | 19.4 | 17.1 | −1.3 | 3.6 | 6.6 | – | – | – | – | Nc1c[n+](N2CCOCC2)no1.[Cl-] [SIN-1 chloride] | – | –
24 | 2.3 | 3.8 | 41.6 | −13.0 | −0.1 | 8.6 | – | – | – | – | AG 10 | – | –
